Read-outs that look alike come from different tables or passages of the source.
Tests used:
[1] = molecular target: T1, CDK2/cyclin E (Homo sapiens, UniProt P24941); assay: CDK2/Cyclin E kinase assay (GST-Rb phosphorylation, radiolabelled ATP); format: biochemical;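 also: enzyme was His-tagged CDK2/cyclin E co-expressed in baculovirus-infected Sf9 insect cells and purified over a metal-chelate column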
T1 construct: His; made in house; host or cells: Sf9 insect cells (baculovirus)

[2] = test system: human tumour cell lines; assay: cell-based anti-proliferative assays
Source text: These assays, including methods for their performance, are described in more detail in Example 3. Using such cell line and enzymes assays it may be determined whether a compound is anti-proliferative in the context of the present invention.
Selected compounds from the above examples were subjected to a standard cellular proliferation assay using a range of different human tumour cell lines. Standard 72-h MTT (thiazolyl blue; 3-[4,5-dimethylthiazol-2-yl]-2,5-diphenyltetrazolium bromide) assays were performed (Haselsberger, K.; Peterson, D. C.; Thomas, D. G.; Darling, J. L. Anti Cancer Drugs 1996, 7, 331–8; Loveland, B. E.; Johns, T. G.; Mackay, I. R.; Vaillant, F.; Wang, Z. X.; Hertzog, P. J. Biochemistry International 1992, 27, 501–10). Human tumour cell lines were obtained from the ATCC (American Type Culture Collection, 10801 University Boulevard, Manessas, Va. 20110-2209, USA).

[3] = test system: A549; assay: 72-h MTT cellular proliferation assay, A549; format: cell-based; conditions: human tumour cell line A549, 72-h MTT; read-out: Cytotoxicity (IC50, μM) A549
Source text: (§1) Selected compounds from the above examples were subjected to a standard cellular proliferation assay using a range of different human tumour cell lines.

[4] = test system: HT29; assay: 72-h MTT cellular proliferation assay, HT29; format: cell-based; conditions: HT-29; human tumour cell line HT29, 72-h MTT; read-out: Cytotoxicity (IC50, μM) HT29
Source text: as §1

[5] = test system: Saos-2; assay: 72-h MTT cellular proliferation assay, Saos-2; format: cell-based; conditions: human tumour cell line Saos-2, 72-h MTT; read-out: Cytotoxicity (IC50, μM) Saos-2
Source text: as §1

[6] = bound stated, (±0.05), read-out: IC50 for cdk2/cyclinE

IC50 [1, 6] [nM]	IC50 ([1]; read-out: CDK2/cyclin E (IC50)) [nM]	melting point [°C]	Compound	anti-proliferative activity in cell-based assays [2]	other results
< 1000	1000 ± 700		Cc1c[nH]c(C)c1-c1ccnc(Nc2ccc(F)cc2)n1 [Compound 1, [4-(2,4-Dimethyl-1H-pyrrol-3-yl)-pyrimidin-2-yl]-(4-fluoro-phenyl)-amine]		
			Cc1c[nH]c(C)c1-c1ccnc(Nc2cccc([N+](=O)[O-])c2)n1 [Compound 2]	particularly effective anti-proliferative agents	
< 500	500		Cc1c[nH]c(C)c1-c1ccnc(Nc2ccc(I)cc2)n1 [Compound 3, [4-(2,4-Dimethyl-1H-pyrrol-3-yl)-pyrimidin-2-yl]-(4-iodo-phenyl)-amine]		
< 5000	1300 ± 400		Cc1c[nH]c(C)c1-c1ccnc(Nc2ccc(F)c(F)c2)n1 [Compound 4, (3,4-Difluoro-phenyl)-[4-(2,4-dimethyl-1H-pyrrol-3-yl)-pyrimidin-2-yl]-amine]		
< 5000	1700	219 to 223	Cc1c[nH]c(C)c1-c1ccnc(Nc2ccc(Cl)cc2)n1 [Compound 5, (4-Chloro-phenyl)-[4-(2,4-dimethyl-1H-pyrrol-3-yl)-pyrimidin-2-yl]-amine]		
< 5000	1300	153.3 to 156.8	Cc1c[nH]c(C)c1-c1ccnc(Nc2cc(F)cc(F)c2)n1 [Compound 6, (3,5-Difluoro-phenyl)-[4-(2,4-dimethyl-1H-pyrrol-3-yl)-pyrimidin-2-yl]-amine]		
< 5000	2900	189.5 to 193.4	Cc1c[nH]c(C)c1-c1ccnc(Nc2ccc(O)cc2)n1 [Compound 7, 4-[4-(2,4-Dimethyl-1H-pyrrol-3-yl)-pyrimidin-2-ylamino]-phenol]		
< 5000	1400	169 to 174.6	Cc1c[nH]c(C)c1-c1ccnc(Nc2cccc(O)c2)n1 [Compound 8, 3-[4-(2,4-Dimethyl-1H-pyrrol-3-yl)-pyrimidin-2-ylamino]-phenol]		
		219 to 220	Cc1c[nH]c(C)c1-c1ccnc(Nc2ccc(F)cc2F)n1 [Compound 9, (2,4-Difluoro-phenyl)-[4-(2,4-dimethyl-1H-pyrrol-3-yl)-pyrimidin-2-yl]-amine]		
		158.5 to 159.7	Cc1c[nH]c(C)c1-c1ccnc(Nc2ccc(Cl)cc2Cl)n1 [Compound 10, (2,4-Dichloro-phenyl)-[4-(2,4-dimethyl-1H-pyrrol-3-yl)-pyrimidin-2-yl]-amine]		
		187.7 to 190.7	Cc1c[nH]c(C)c1-c1ccnc(Nc2ccc(Cl)c(C(F)(F)F)c2)n1 [Compound 11, (4-Chloro-3-trifluoromethyl-phenyl)-[4-(2,4-dimethyl-1H-pyrrol-3-yl)-pyrimidin-2-yl]-amine]		
< 1000	900	165.6 to 167.9	Cc1c[nH]c(C)c1-c1ccnc(Nc2ccc(C(F)(F)F)cc2)n1 [Compound 12, [4-(2,4-Dimethyl-1H-pyrrol-3-yl)-pyrimidin-2-yl]-(4-trifluoromethyl-phenyl)-amine]	particularly effective anti-proliferative agents	IC50 [3]: 15 µM; IC50 [4]: 3.1 µM; IC50 [5]: 17 µM
		152.7 to 154.3	Cc1c[nH]c(C)c1-c1ccnc(Nc2cccc(C(F)(F)F)c2)n1 [Compound 13, [4-(2,4-Dimethyl-1H-pyrrol-3-yl)-pyrimidin-2-yl]-(3-trifluoromethyl-phenyl)-amine]		
< 5000	1520	185 to 187.4	Cc1c[nH]c(C)c1-c1ccnc(Nc2ccc(I)c(Cl)c2)n1 [Compound 16, (3-Chloro-4-iodo-phenyl)-[4-(2,4-dimethyl-1H-pyrrol-3-yl)-pyrimidin-2-yl]-amine]	particularly effective anti-proliferative agents	IC50 [3]: 4.39 µM
< 5000	1730	200 to 202	Cc1c[nH]c(C)c1-c1ccnc(Nc2ccc(I)c(F)c2)n1 [Compound 17, [4-(2,4-Dimethyl-1H-pyrrol-3-yl)-pyrimidin-2-yl]-(3-fluoro-4-iodo-phenyl)-amine]		
			Cc1[nH]c(C#N)c(C)c1-c1ccnc(Nc2cccc([N+](=O)[O-])c2)n1 [Compound 31, 3,5-Dimethyl-4-[2-(3-nitro-phenylamino)-pyrimidin-4-yl]-1H-pyrrole-2-carbonitrile]	particularly effective anti-proliferative agents	
			Cc1[nH]c(C#N)c(C)c1-c1ccnc(Nc2ccc(O)cc2)n1 [Compound 33, 4-[2-(4-Hydroxy-phenylamino)-pyrimidin-4-yl]-3,5-dimethyl-1H-pyrrole-2-carbonitrile]	particularly effective anti-proliferative agents	
			Cc1ccc(Nc2nccc(-c3c(C)[nH]c(C#N)c3C)n2)cc1[N+](=O)[O-] [Compound 37, 3,5-Dimethyl-4-[2-(4-methyl-3-nitro-phenylamino)-pyrimidin-4-yl]-1H-pyrrole-2-carbonitrile]	particularly effective anti-proliferative agents	
			Cc1ccc(Nc2nccc(-c3c(C)[nH]c(C#N)c3C)n2)cc1O [Compound 40, 4-[2-(3-Hydroxy-4-methyl-phenylamino)-pyrimidin-4-yl]-3,5-dimethyl-1H-pyrrole-2-carbonitrile]	particularly effective anti-proliferative agents	
			Cc1cc(Nc2nccc(-c3c(C)[nH]c(C#N)c3C)n2)ccc1F [Compound 41, 4-[2-(4-Fluoro-3-methyl-phenylamino)-pyrimidin-4-yl]-3,5-dimethyl-1H-pyrrole-2-carbonitrile]	particularly effective anti-proliferative agents	
			Cc1[nH]c(C(N)=O)c(C)c1-c1ccnc(Nc2ccc(F)cc2)n1 [Compound 44, 4-[2-(4-Fluoro-phenylamino)-pyrimidin-4-yl]-3,5-dimethyl-1H-pyrrole-2-carboxylic acid amide]	particularly effective anti-proliferative agents	
< 5000	1790		Cc1cn(C)c(C)c1-c1ccnc(Nc2ccc(F)cc2)n1 [Compound 46, (4-Fluoro-phenyl)-[4-(1,2,4-trimethyl-1H-pyrrol-3-yl)-pyrimidin-2-yl]-amine]	particularly effective anti-proliferative agents	
			Cc1[nH]c([N+](=O)[O-])c(C)c1-c1ccnc(Nc2ccc(F)cc2)n1 [Compound 47, [4-(2,4-Dimethyl-5-nitro-1H-pyrrol-3-yl)-pyrimidin-2-yl]-(4-fluoro-phenyl)-amine]	particularly effective anti-proliferative agents	
< 1000			Cc1[nH]c(Br)c(C)c1-c1ccnc(Nc2ccc(F)cc2)n1 [Compound 50, [4-(5-Bromo-2,4-dimethyl-1H-pyrrol-3-yl)-pyrimidin-2-yl]-(4-fluoro-phenyl)-amine]		
< 1000			Cc1[nH]c(Cl)c(C)c1-c1ccnc(Nc2ccc(F)cc2)n1 [Compound 52, [4-(5-Chloro-2,4-dimethyl-1H-pyrrol-3-yl)-pyrimidin-2-yl]-(4-fluoro-phenyl)-amine]		
< 1000	870		CCN(CC)Cc1[nH]c(C)c(-c2ccnc(Nc3ccc(F)cc3)n2)c1C [Compound 53, [4-(5-Diethylaminomethyl-2,4-dimethyl-1H-pyrrol-3-yl)-pyrimidin-2-yl]-(4-fluoro-phenyl)-amine]	particularly effective anti-proliferative agents	IC50 [3]: 0.97 µM; IC50 [4]: 1.31 µM; IC50 [5]: 1.61 µM
< 1000	870	94.7 to 97.6	Cc1[nH]c(CN2CCOCC2)c(C)c1-c1ccnc(Nc2ccc(F)cc2)n1 [Compound 55, [4-(2,4-Dimethyl-5-morpholin-4-ylmethyl-1H-pyrrol-3-yl)-pyrimidin-2-yl]-(4-fluoro-phenyl)-amine]		
< 5000	1510		Cc1[nH]c(CN2CCN(C)CC2)c(C)c1-c1ccnc(Nc2ccc(F)cc2)n1 [Compound 56, {4-[2,4-Dimethyl-5-(4-methyl-piperazin-1-ylmethyl)-1H-pyrrol-3-yl]-pyrimidin-2-yl}-(4-fluoro-phenyl)-amine]	particularly effective anti-proliferative agents	IC50 [3]: 13.8 µM; IC50 [4]: 5.09 µM; IC50 [5]: 14.2 µM

Compound	IC50 [1, 6] [nM]	IC50 ([1]; read-out: CDK2/cyclin E (IC50)) [nM]	melting point [°C]	anti-proliferative activity in cell-based assays [2]	other results
Cc1[nH]c(C#N)c(C)c1-c1ccnc(Nc2cccc(O)c2)n1 [Compound 36, 4-[2-(3-Hydroxy-phenylamino)-pyrimidin-4-yl]-3,5-dimethyl-1H-pyrrole-2-carbonitrile]	< 500			particularly effective anti-proliferative agents	IC50 [5]: 0.9 µM
